Reference: ChEMBL document CHEMBL1201861, “Genomics of Drug Sensitity in Cancer screening data, Wellcome Trust Sanger Institute”

Assays:
Assay in all cases: cells
SK-MEL-30 = type: functional, cell-based; details: Homo sapiens;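 note: growth inhibition of SK-MEL-30 cells, determined with a cell viability assay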
Description: SANGER: Inhibition of human SK-MEL-30 cell growth in a cell viability assay.

NCI-H510A = type: functional, cell-based, Homo sapiens; details: Homo sapiens, NCI-H510A;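 note: growth inhibition of NCI-H510A cells, read out with a cell viability assay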
Description: SANGER: Inhibition of human NCI-H510A cell growth in a cell viability assay.

NCI-H2196 = type: functional, cell-based, Homo sapiens; details: Homo sapiens, NCI-H2196; read-out: IC50;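 note: cell viability assay used as the readout of growth inhibition in NCI-H2196 cells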
Description: SANGER: Inhibition of human NCI-H2196 cell growth in a cell viability assay.

SK-LU-1 = type: functional, cell-based; details: Homo sapiens;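 note: cell viability assay measuring growth inhibition of human SK-LU-1 cells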
Description: SANGER: Inhibition of human SK-LU-1 cell growth in a cell viability assay.

NCI-H727 = type: functional, cell-based; details: Homo sapiens;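 note: growth inhibition of human NCI-H727 cells, read out with a cell viability assay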
Description: SANGER: Inhibition of human NCI-H727 cell growth in a cell viability assay.

MDA-MB-175-VII = type: functional, cell-based; details: Homo sapiens
HO-1-N-1 = type: functional, cell-based; details: Homo sapiens;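 note: growth inhibition of human HO-1-N-1 cells, read out with a cell viability assay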
Description: SANGER: Inhibition of human HO-1-N-1 cell growth in a cell viability assay.

KMOE-2 = type: functional, cell-based, Homo sapiens; details: Homo sapiens, KMOE-2;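 note: growth inhibition of human KMOE-2 cells, read out with a cell viability assay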
Description: SANGER: Inhibition of human KMOE-2 cell growth in a cell viability assay.

NCI-H2081 = type: functional, cell-based, Homo sapiens; details: Homo sapiens, NCI-H2081;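 note: growth inhibition of human NCI-H2081 cells, read out with a cell viability assay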
Description: SANGER: Inhibition of human NCI-H2081 cell growth in a cell viability assay.

NCI-H187 = type: functional, cell-based, Homo sapiens; details: Homo sapiens, NCI-H187;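 note: growth inhibition of NCI-H187 cells, read out as cell viability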
Description: SANGER: Inhibition of human NCI-H187 cell growth in a cell viability assay.

UMC-11 = type: functional, cell-based; details: Homo sapiens;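 note: growth inhibition of UMC-11 cells, read out with a cell viability assay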
Description: SANGER: Inhibition of human UMC-11 cell growth in a cell viability assay.

ARH-77 = type: functional, cell-based, Homo sapiens; details: Homo sapiens, ARH-77;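 note: growth inhibition of ARH-77 cells, read out by a cell viability assay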
Description: SANGER: Inhibition of human ARH-77 cell growth in a cell viability assay.

KYSE-510 = type: functional, cell-based; details: Homo sapiens;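 note: cell viability readout used to measure how strongly growth of the cell line is suppressed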
Description: SANGER: Inhibition of human KYSE-510 cell growth in a cell viability assay.

HC-1 = type: functional, cell-based, Homo sapiens; details: Homo sapiens, HC-1;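 note: growth inhibition of HC-1 cells measured by a cell viability assay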
Description: SANGER: Inhibition of human HC-1 cell growth in a cell viability assay.

NCI-H524 = type: functional, cell-based, Homo sapiens; details: Homo sapiens, NCI-H524;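 note: growth inhibition of human NCI-H524 cells, read out through a cell viability assay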
Description: SANGER: Inhibition of human NCI-H524 cell growth in a cell viability assay.

PC-3 = type: functional, cell-based; details: Homo sapiens;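 note: cell viability assay measuring growth inhibition of PC-3 cells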
Description: SANGER: Inhibition of human PC-3 cell growth in a cell viability assay.

MG-63 = type: functional, cell-based; details: Homo sapiens;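 note: growth inhibition of human MG-63 cells, read out with a cell viability assay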
Description: SANGER: Inhibition of human MG-63 cell growth in a cell viability assay.

SW626 = type: functional, cell-based; details: Homo sapiens;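 note: growth inhibition of SW626 cells, measured with a cell viability assay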
Description: SANGER: Inhibition of human SW626 cell growth in a cell viability assay.

LU-165 = type: functional, cell-based, Homo sapiens; details: Homo sapiens, LU-165
Description: SANGER: Inhibition of human LU-165 cell growth in a cell viability assay.

KYSE-270 = type: functional, cell-based; details: Homo sapiens;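 note: cell growth inhibition measured with a viability assay in the human KYSE-270 line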
Description: SANGER: Inhibition of human KYSE-270 cell growth in a cell viability assay.

HCC1599 = type: functional, cell-based, Homo sapiens; details: Homo sapiens, HCC1599;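 note: growth inhibition of HCC1599 cells, read out in a cell viability assay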
Description: SANGER: Inhibition of human HCC1599 cell growth in a cell viability assay.

J82 = type: functional, cell-based; details: Homo sapiens;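 note: growth inhibition of J82 cells, read out with a cell viability assay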
Description: SANGER: Inhibition of human J82 cell growth in a cell viability assay.

DU-145 = type: functional, cell-based; details: Homo sapiens
Description: SANGER: Inhibition of human DU-145 cell growth in a cell viability assay.

NCI-H1694 = type: functional, cell-based, Homo sapiens; details: Homo sapiens, NCI-H1694;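 note: cell viability assay measuring inhibition of growth in human NCI-H1694 cells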
Description: SANGER: Inhibition of human NCI-H1694 cell growth in a cell viability assay.

OE33 = type: functional, cell-based; details: Homo sapiens;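 note: growth inhibition of human OE33 cells, measured by a cell viability assay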
Description: SANGER: Inhibition of human OE33 cell growth in a cell viability assay.

HOS = type: functional, cell-based; details: Homo sapiens;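 note: growth inhibition of human HOS cells, read out with a cell viability assay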
Description: SANGER: Inhibition of human HOS cell growth in a cell viability assay.

CAL-148 = type: functional, cell-based, Homo sapiens; details: Homo sapiens, CAL-148
Description: SANGER: Inhibition of human CAL-148 cell growth in a cell viability assay.

DMS-273 = type: functional, cell-based; details: Homo sapiens
Description: SANGER: Inhibition of human DMS-273 cell growth in a cell viability assay.

AU565 = type: functional, cell-based; details: Homo sapiens;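 note: cell viability assay measuring growth inhibition of human AU565 cells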
Description: SANGER: Inhibition of human AU565 cell growth in a cell viability assay.

NUGC-3 = type: functional, cell-based; details: Homo sapiens;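 note: growth inhibition of human NUGC-3 cells, read out with a cell viability assay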
Description: SANGER: Inhibition of human NUGC-3 cell growth in a cell viability assay.

HuP-T4 = type: functional, cell-based; details: Homo sapiens;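 note: cell viability assay measuring how much HuP-T4 cell growth is inhibited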
Description: SANGER: Inhibition of human HuP-T4 cell growth in a cell viability assay.

BCPAP = type: functional, cell-based; details: Homo sapiens;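 note: growth inhibition of BCPAP cells, read out in a cell viability assay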
Description: SANGER: Inhibition of human BCPAP cell growth in a cell viability assay.

HuCCT-1 = type: functional, cell-based, HuCCT1; details: Homo sapiens;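 note: growth inhibition of HuCCT-1 cells, read out by a cell viability assay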
Description: SANGER: Inhibition of human HuCCT1 cell growth in a cell viability assay.

NCI-H1793 = type: functional, cell-based; details: Homo sapiens;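 note: cell growth inhibition, read out by a cell viability assay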
Description: SANGER: Inhibition of human NCI-H1793 cell growth in a cell viability assay.

OVCAR-8 = type: functional, cell-based; details: Homo sapiens;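 note: growth inhibition of human OVCAR-8 cells, read out by a cell viability assay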
Description: SANGER: Inhibition of human OVCAR-8 cell growth in a cell viability assay.

SK-MEL-28 = type: functional, cell-based; details: Homo sapiens;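 note: growth inhibition of human SK-MEL-28 cells, read out with a cell viability assay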
Description: SANGER: Inhibition of human SK-MEL-28 cell growth in a cell viability assay.

KOSC-2 = type: functional, cell-based; details: Homo sapiens;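 note: growth inhibition of KOSC-2 cells, read out by a cell viability assay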
Description: SANGER: Inhibition of human KOSC-2 cell growth in a cell viability assay.

HPAF-II = type: functional, cell-based; details: Homo sapiens;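 note: growth inhibition of HPAF-II cells, read out with a cell viability assay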
Description: SANGER: Inhibition of human HPAF-II cell growth in a cell viability assay.

SNU-16 = type: functional, cell-based, Homo sapiens; details: Homo sapiens, SNU-16;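 note: growth inhibition of human SNU-16 cells, determined with a cell viability readout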
Description: SANGER: Inhibition of human NCI-SNU-16 cell growth in a cell viability assay.

FTC-133 = type: functional, cell-based; details: Homo sapiens
RVH-421 = type: functional, cell-based; details: Homo sapiens
Description: SANGER: Inhibition of human RVH-421 cell growth in a cell viability assay.

CAL-33 = type: functional, cell-based; details: Homo sapiens;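 note: growth inhibition of CAL-33 cells, read out with a cell viability assay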
Description: SANGER: Inhibition of human CAL-33 cell growth in a cell viability assay.

KYSE-180 = type: functional, cell-based; details: Homo sapiens;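 note: growth inhibition of KYSE-180 cells, read out with a cell viability assay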
Description: SANGER: Inhibition of human KYSE-180 cell growth in a cell viability assay.

LK-2 = type: functional, cell-based; details: Homo sapiens;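 note: growth inhibition of LK-2 cells, read out with a viability assay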
Description: SANGER: Inhibition of human LK-2 cell growth in a cell viability assay.

HCC 2998 = type: functional, cell-based; details: Homo sapiens;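 note: growth inhibition of human HCC2998 cells, measured with a cell viability read-out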
Description: SANGER: Inhibition of human HCC2998 cell growth in a cell viability assay.

MDA-MB-415 = type: functional, cell-based; details: Homo sapiens
SK-OV-3 = type: functional, cell-based; details: Homo sapiens;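 note: growth inhibition of SK-OV-3 human cells, read out with a cell viability assay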
Description: SANGER: Inhibition of human SK-OV-3 cell growth in a cell viability assay.

NCI-H716 = type: functional, cell-based, Homo sapiens; details: Homo sapiens, NCI-H716;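 note: growth inhibition of human NCI-H716 cells, measured by a cell viability assay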
Description: SANGER: Inhibition of human NCI-H716 cell growth in a cell viability assay.

KU-19-19 = type: functional, cell-based; details: Homo sapiens
Description: SANGER: Inhibition of human KU-19-19 cell growth in a cell viability assay.

EFM-19 = type: functional, cell-based; details: Homo sapiens;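 note: growth inhibition of human EFM-19 cells, measured in a cell viability assay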
Description: SANGER: Inhibition of human EFM-19 cell growth in a cell viability assay.

PC-14 = type: functional, cell-based; details: Homo sapiens;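 note: cell viability assay measuring inhibition of PC-14 cell growth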
Description: SANGER: Inhibition of human PC-14 cell growth in a cell viability assay.

HTC-C3 = type: functional, cell-based; details: Homo sapiens;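 note: inhibition of cell growth, read out with a cell viability assay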
Description: SANGER: Inhibition of human HTC-C3 cell growth in a cell viability assay.

A-375 = type: functional, cell-based; details: Homo sapiens;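 note: growth inhibition of A375 cells, read out with a cell viability assay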
Description: SANGER: Inhibition of human A375 cell growth in a cell viability assay.

KYSE-140 = type: functional, cell-based; details: Homo sapiens;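 note: cell viability assay measuring growth inhibition in human KYSE-140 cells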
Description: SANGER: Inhibition of human KYSE-140 cell growth in a cell viability assay.

BHT-101 = type: functional, cell-based; details: Homo sapiens
Description: SANGER: Inhibition of human BHT-101 cell growth in a cell viability assay.

HGC-27 = type: functional, cell-based; details: Homo sapiens;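 note: growth inhibition of human HGC-27 cells, read out in a cell viability assay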
Description: SANGER: Inhibition of human HGC-27 cell growth in a cell viability assay.

EC-GI-10 = type: functional, cell-based, Homo sapiens; details: Homo sapiens, EC-GI-10
Description: SANGER: Inhibition of human EC-GI-10 cell growth in a cell viability assay.

For `COc1ccc(-c2cc3nccn3c(Nc3ncccc3C(N)=O)n2)cc1OC`, the IC50 (SK-MEL-30) was > 8 µM, the IC50 (NCI-H510A) was > 8 µM and the IC50 (NCI-H2196) was > 8 µM. The IC50 (SK-LU-1) was 2.03 µM, the IC50 (NCI-H727) was 6.15 µM and the IC50 (MDA-MB-175-VII) was > 8 µM. For the same molecule, the IC50 (HO-1-N-1) was > 8 µM, the IC50 (KMOE-2) was 1.98 µM and the IC50 (NCI-H2081) was > 8 µM. The IC50 (NCI-H187) was > 8 µM, the IC50 (UMC-11) was > 8 µM and the IC50 (ARH-77) was 3.06 µM. For the same molecule, the IC50 (KYSE-510) was 2.87 µM, the IC50 (HC-1) was 0.754 µM and the IC50 (NCI-H524) was > 8 µM. The IC50 (PC-3) was > 8 µM, the IC50 (MG-63) was > 8 µM and the IC50 (SW626) was > 8 µM. The IC50 (LU-165) was 7.97 µM, the IC50 (KYSE-270) was 1.45 µM and the IC50 (HCC1599) was 2.69 µM. For the same molecule, the IC50 (J82) was 1.51 µM, the IC50 (DU-145) was 7.97 µM and the IC50 (NCI-H1694) was > 8 µM. The IC50 (OE33) was > 8 µM, the IC50 (HOS) was 3.32 µM and the IC50 (CAL-148) was > 8 µM. For the same molecule, the IC50 (DMS-273) was 6.61 µM, the IC50 (AU565) was 7.15 µM and the IC50 (NUGC-3) was > 8 µM. For the same molecule, the IC50 (HuP-T4) was 7.99 µM, the IC50 (BCPAP) was 3.17 µM and the IC50 (HuCCT-1) was > 8 µM. For the same molecule, the IC50 (NCI-H1793) was > 8 µM, the IC50 (OVCAR-8) was > 8 µM and the IC50 (SK-MEL-28) was > 8 µM. The IC50 (KOSC-2) was > 8 µM, the IC50 (HPAF-II) was > 8 µM and the IC50 (SNU-16) was > 8 µM. For the same molecule, the IC50 (FTC-133) was > 8 µM, the IC50 (RVH-421) was > 8 µM and the IC50 (CAL-33) was > 8 µM. The IC50 (KYSE-180) was 5.62 µM, the IC50 (LK-2) was > 8 µM and the IC50 (HCC 2998) was 5.55 µM. The IC50 (MDA-MB-415) was > 8 µM, the IC50 (SK-OV-3) was > 8 µM and the IC50 (NCI-H716) was > 8 µM. The IC50 (KU-19-19) was > 8 µM, the IC50 (EFM-19) was > 8 µM and the IC50 (PC-14) was > 8 µM. For the same molecule, the IC50 (HTC-C3) was > 8 µM, the IC50 (A-375) was 1.27 µM and the IC50 (KYSE-140) was 3.75 µM. The IC50 (BHT-101) was > 8 µM, the IC50 (HGC-27) was 2.7 µM and the IC50 (EC-GI-10) was > 8 µM.

For `OC[C@H](Cc1ccccc1)Nc1nc(Oc2ccc3c(c2)CCC3)nc2c1ncn2Cc1ccc(-c2ccccc2)cc1`, the IC50 (SK-MEL-30) was 8.89 µM, the IC50 (NCI-H510A) was > 10.2 µM and the IC50 (NCI-H2196) was > 10.2 µM. For the same molecule, the IC50 (SK-LU-1) was > 10.2 µM, the IC50 (NCI-H727) was > 10.2 µM and the IC50 (MDA-MB-175-VII) was > 10.2 µM. For the same molecule, the IC50 (HO-1-N-1) was > 10.2 µM, the IC50 (KMOE-2) was > 10.2 µM and the IC50 (NCI-H2081) was > 10.2 µM. For the same molecule, the IC50 (NCI-H187) was > 10.2 µM, the IC50 (UMC-11) was > 10.2 µM and the IC50 (ARH-77) was > 10.2 µM. The IC50 (KYSE-510) was 3.45 µM, the IC50 (HC-1) was > 10.2 µM and the IC50 (NCI-H524) was > 10.2 µM. For the same molecule, the IC50 (PC-3) was > 10.2 µM, the IC50 (MG-63) was 4.63 µM and the IC50 (SW626) was 8.3 µM. The IC50 (LU-165) was > 10.2 µM, the IC50 (KYSE-270) was 1.76 µM and the IC50 (HCC1599) was > 10.2 µM. For the same molecule, the IC50 (J82) was 9.51 µM, the IC50 (DU-145) was 7.86 µM and the IC50 (NCI-H1694) was > 10.2 µM. The IC50 (OE33) was > 10.2 µM, the IC50 (HOS) was 3.08 µM and the IC50 (CAL-148) was > 10.2 µM. For the same molecule, the IC50 (DMS-273) was > 10.2 µM, the IC50 (AU565) was 6.47 µM and the IC50 (NUGC-3) was > 10.2 µM. The IC50 (HuP-T4) was 7.07 µM, the IC50 (BCPAP) was > 10.2 µM and the IC50 (HuCCT-1) was > 10.2 µM. For the same molecule, the IC50 (NCI-H1793) was > 10.2 µM, the IC50 (OVCAR-8) was > 10.2 µM and the IC50 (SK-MEL-28) was > 10.2 µM. For the same molecule, the IC50 (KOSC-2) was > 10.2 µM, the IC50 (HPAF-II) was > 10.2 µM and the IC50 (SNU-16) was > 10.2 µM. The IC50 (FTC-133) was > 10.2 µM, the IC50 (RVH-421) was > 10.2 µM and the IC50 (CAL-33) was > 10.2 µM. The IC50 (KYSE-180) was > 10.2 µM, the IC50 (LK-2) was > 10.2 µM and the IC50 (HCC 2998) was > 10.2 µM. The IC50 (MDA-MB-415) was > 10.2 µM, the IC50 (SK-OV-3) was > 10.2 µM and the IC50 (NCI-H716) was > 10.2 µM. For the same molecule, the IC50 (KU-19-19) was > 10.2 µM, the IC50 (EFM-19) was > 10.2 µM and the IC50 (PC-14) was > 10.2 µM. The IC50 (HTC-C3) was > 10.2 µM, the IC50 (A-375) was 6.87 µM and the IC50 (KYSE-140) was 7.49 µM. For the same molecule, the IC50 (BHT-101) was > 10.2 µM, the IC50 (HGC-27) was 2.31 µM and the IC50 (EC-GI-10) was > 10.2 µM.

In the case of `CCCCCCCCCCCC1=C(O)C(=O)C=C(O)C1=O` [EMBELIN], the IC50 (SK-MEL-30) is reported as 12.8 µM, the IC50 (NCI-H510A) is reported as > 32 µM and the IC50 (NCI-H2196) is reported as > 32 µM. For the same molecule, the IC50 (SK-LU-1) was 7.21 µM, the IC50 (NCI-H727) was 7.88 µM and the IC50 (MDA-MB-175-VII) was > 32 µM. For the same molecule, the IC50 (HO-1-N-1) was 12.3 µM, the IC50 (KMOE-2) was 24.3 µM and the IC50 (NCI-H2081) was > 32 µM. For the same molecule, the IC50 (NCI-H187) was > 32 µM, the IC50 (UMC-11) was > 32 µM and the IC50 (ARH-77) was 16.4 µM. For the same molecule, the IC50 (KYSE-510) was 5.81 µM, the IC50 (HC-1) was 5.4 µM and the IC50 (NCI-H524) was > 32 µM. For the same molecule, the IC50 (PC-3) was 14.8 µM, the IC50 (MG-63) was 9.64 µM and the IC50 (SW626) was 9.35 µM. For the same molecule, the IC50 (LU-165) was > 32 µM, the IC50 (KYSE-270) was 8.86 µM and the IC50 (HCC1599) was 9.04 µM. The IC50 (J82) was 11.8 µM, the IC50 (DU-145) was 8.76 µM and the IC50 (NCI-H1694) was > 32 µM. For the same molecule, the IC50 (OE33) was 13.3 µM, the IC50 (HOS) was 15.3 µM and the IC50 (CAL-148) was > 32 µM. For the same molecule, the IC50 (DMS-273) was 4.06 µM, the IC50 (AU565) was 9.91 µM and the IC50 (NUGC-3) was 9.18 µM. It also gave an IC50 (HuP-T4) of 7.56 µM, an IC50 (BCPAP) of 13.7 µM and an IC50 (HuCCT-1) of 9.92 µM. For the same molecule, the IC50 (NCI-H1793) was > 32 µM, the IC50 (OVCAR-8) was 11.3 µM and the IC50 (SK-MEL-28) was 8.48 µM. The IC50 (KOSC-2) was > 32 µM, the IC50 (HPAF-II) was 25.4 µM and the IC50 (SNU-16) was > 32 µM. For the same molecule, the IC50 (FTC-133) was > 32 µM, the IC50 (RVH-421) was 11.5 µM and the IC50 (CAL-33) was 22.9 µM. It also gave an IC50 (KYSE-180) of 7.58 µM, an IC50 (LK-2) of 18 µM and an IC50 (HCC 2998) of 6.8 µM. For the same molecule, the IC50 (MDA-MB-415) was 30 µM, the IC50 (SK-OV-3) was 10.9 µM and the IC50 (NCI-H716) was > 32 µM. The IC50 (KU-19-19) was > 32 µM, the IC50 (EFM-19) was 4.91 µM and the IC50 (PC-14) was 15.6 µM. The IC50 (HTC-C3) was 12.8 µM, the IC50 (A-375) was 3.57 µM and the IC50 (KYSE-140) was 5.04 µM. The IC50 (BHT-101) was 20 µM, the IC50 (HGC-27) was 7.95 µM and the IC50 (EC-GI-10) was > 32 µM.
